Laboratory results published in patent US20240391955A1, “PEPTIDE HAVING ANTI-AGING ACTIVITY, AND USE THEREOF” (CAREGEN CO., LTD., priority 2021, published 2024).

How the values were obtained:
[1] = tested on: AQP3; assay: AQP3 mRNA level by RT-PCR in HaCaT keratinocytes; type: cell-based, human; details: HaCaT cells, peptide 10, 50, 100 μM, 24 hours, FIG. 3
Procedure: (§1) First, HaCaT cells were seeded in a 6-well plate at a cell density of 3×10^5 cell/well, and then the cells were cultured in DMEM medium containing 10% fetal bovine serum (FBS) for 24 hours. The cultured cells were washed once with serum free DMEM medium, and then the peptide of the present invention was mixed in 1 mL of the serum free DMEM medium at each of concentrations of 10, 50, and 100 μM, and dispensed into the cells. A positive control (PC) was treated with 100 nM of EGF instead of the above peptide. The cells were cultured in a CO2 incubator at 37° C. for 24 hours.
(§2) The cultured cells were washed twice with PBS, and then RNA was extracted from the cells using easy blue (iNtRON, Cat. No.: 17061, Korea). The extracted RNA was subjected to RT reaction using a kit (enzynomics, Cat. No.: RT200, Korea). Thereafter, RT-PCR was performed using a PCR kit (enzynomics, Cat. No.: R581T, Korea). The sequences of the primers of SIRT1 and AQP3 used in RT-PCR and the sequence of the primer of GAPDH used to compare the total RNA amount of each treatment group are shown in [Table 2].

[2] = tested on: fibronectin gene; assay: Fibronectin gene expression by RT-PCR in fibroblasts; type: cell-based, mouse; details: NIH3T3 cells, peptide 10, 50, 100 μM, 24 hours, FIG. 1
Procedure: (§3) First, NIH3T3 cells (mouse fibroblast cell line) were seeded in a 6-well plate at a cell density of 3×10^5 cell/well, and then the cells were cultured in DMEM medium containing 10% fetal bovine serum (FBS) for 24 hours. The cultured cells were washed once with serum free DMEM medium, and the peptide of the present invention was mixed in 1 mL of the serum free DMEM medium at each of concentrations of 10, 50, and 100 μM, and dispensed into the cells. A positive control (PC) was treated with 5 ng/ml of TGF-β1 instead of the above peptide. The cells were cultured in a CO2 incubator at 37° C. for 24 hours.
(§4) The cultured cells were washed twice with PBS, and RNA was extracted from the cells using easy blue (iNtRON, Cat. No.: 17061, Korea). The amount of RNA extracted was quantified, 1,000 ng of RNA was added per tube, and RT reaction was performed using a kit (enzynomics, Cat. No.: […], Korea). RT-PCR was performed using a PCR kit (enzynomics, Cat. No.: […], Korea). The sequences of the primers of fibronectin and elastin used in RT-PCR and the sequence of the primer of GAPDH used to compare the total RNA amount of each treatment group are shown in [Table 2].

[3] = tested on: MMP-2; assay: MMP-2 activity after UVA irradiation, gelatin zymography; type: cell-based, mouse; details: NIH3T3 cells, culture medium, peptide 10, 50, 100 μM, 6 J/cm^2 UVA, FIG. 6
[4] = tested on: intracellular reactive oxygen species in NIH3T3 cells; assay: Intracellular ROS level after UVA irradiation (DCFH-DA, FACS); type: cell-based, mouse; details: peptide 10, 50, 100 μM, 8 J/cm^2 UVA, 24 hours after irradiation, FIG. 4
Procedure: as §1, with “NIH3T3” for “HaCaT”, “5×10^5” for “3×10^5”, “7.5 mM” for “100 nM”, “N-acetylcysteine (NaC)” for “EGF”, “peptide.” for “peptide. The cells were cultured in a CO2 incubator at 37° C. for 24 hours.”
The cells were cultured in a CO2 incubator at 37° C. for 1 hour. The medium of the cultured cells was transferred to a tube, 1 ml of PBS was added, and irradiation was performed with 8 J/cm^2 of UVA using a UV irradiator (VILBER LOURMAT, Cat No.: 3102-BSU, France). After removing PBS, 900 μL of the medium transferred to the tube was dispensed, and culture was performed in a CO2 incubator at 37° C. for 24 hours. After treatment with 10 μM of dichloro-dihydro-fluorescein diacetate (DCFH-DA), wrapping with a foil was performed, and culture was performed in a CO2 incubator at 37° C. for 30 minutes. The cells were washed twice with PBS, and 500 μL of 1XTE was dispensed to isolate the cells. After centrifugation, the cells were washed with PBS, and a fluorescence value was measured through FACS.

[5] = tested on: fibronectin; assay: Fibronectin mRNA level after UVA irradiation, RT-PCR; type: cell-based, mouse; details: NIH3T3 cells, peptide 10, 50, 100 μM, 6 J/cm^2 UVA, FIG. 5
Procedure: as §1, with “First, NIH3T3 cells were” for “First, HaCaT cells were”, “density of 5×10^5 cell/well, and” for “density of 3×10^5 cell/well, and”, “treated with 50 μM of Quercetin” for “treated with 100 nM of EGF”, “μM of Quercetin instead of” for “nM of EGF instead of”, “C. for 6 hours.” for “C. for 24 hours.”
(§5) The medium of the cultured cells was transferred to a tube (e-tube), 1 ml of PBS was added, and irradiation was performed with 6 J/cm^2 of UVA using a UV irradiator (VILBER LOURMAT, Cat No.: 3102-BSU, France). After removing PBS, 900 μL of the medium transferred to the tube was dispensed, and culture was performed in a CO2 incubator at 37° C. for 6 hours. The cultured cells were washed twice with PBS, and then RNA was extracted from the cells using easy blue (iNtRON, Cat. No.: 17061, Korea). The amount of RNA extracted was quantified, 1,000 ng of RNA was added per tube, and RT reaction was performed using a kit (enzynomics, Cat. No.: RT200, Korea) Thereafter, RT-PCR was performed using a PCR kit (enzynomics, Cat. No.: R581T, Korea). […]

[6] = tested on: SIRT1; assay: SIRT1 mRNA level by RT-PCR in HaCaT keratinocytes; type: cell-based, human; details: HaCaT cells, peptide 10, 50, 100 μM, 24 hours, FIG. 3
Procedure: as §1, §2

[7] = tested on: hyaluronic acid; assay: Hyaluronic acid secretion by HA ELISA in HaCaT keratinocytes; type: cell-based, human; details: peptide 10, 50, 100 μM, 72 hours, FIG. 2
Procedure: (§6) First, NIH3T3 cells and HaCaT cells (human keratinocyte cell line) were seeded in a 24-well plate at a cell density of 1×10^4 cell/well, and then the cells were cultured in DMEM medium containing 10% fetal bovine serum (FBS) for 24 hours. The cultured cells were washed once with serum free DMEM medium, and the peptide of the present invention was mixed in 2 mL of the serum free DMEM medium at each of concentrations of 10 μM, 50 μM, 100 μM, and 5 ng/ml, and dispensed into three wells by 500 μL per condition. NIH3T3 cells were treated with 5 ng/ml of TGF-β1 instead of the above peptide as a positive control (PC). HaCaT cells were treated with 10 nM of IGF-1 instead of the above peptide as a positive control (PC). The cells were cultured in a CO2 incubator at 37° C. for 72 hours.
(§7) The medium of the cultured NIH3T3 and HaCaT cells was centrifuged to settle a suspended matter, a supernatant was transferred to an e-tube, and then each of ELISA (abcam, Cat No.: ab210579, UK) and hyaluronic acid (HA) ELISA (ECHELON biosciences, Cat No.: K-1200, USA) was performed using the same.

[8] = tested on: MMP-1; assay: MMP-1 protein after heat treatment, western blot; type: cell-based, mouse; details: NIH3T3 cells, peptide 10, 50, 100 μM, 44° C. for 40 minutes, FIG. 7
Procedure: (§8) First, NIH3T3 cells were seeded in a 6-well plate at a cell density of 5×10^5 cell/well, and then the cells were cultured in DMEM medium containing 10% fetal bovine serum (FBS) for 24 hours. The cultured cells were washed once with serum free DMEM medium, and the peptide of the present invention was mixed in 1 mL of the serum free DMEM medium at each of concentrations of 10, 50, and 100 μM, and dispensed into the cells. A positive control (PC) was treated with 2.5 mM of N-acetylcysteine (NaC) instead of the above peptide.
The cells were cultured in a CO2 incubator at 37° C. for 24 hours. A lid and a lower plate of the 6-well plate were sealed with a paraffin film for heat treatment, the lower plate was immersed in a water bath at 44° C., and culture was performed for 40 minutes. After removing the medium, 1 mL of serum free DMEM medium was added, and culture was performed in a CO2 incubator at 37° C. for 8 hours. Thereafter, the cells were washed twice with PBS, and then a cell lysis buffer was added to obtain a lysate.
A sample was prepared by treating the cells with 5× sample buffer, and then SDS-PAGE was performed using 10% SDS-PAGE gel. The proteins isolated through SDS-PAGE were transferred to a PVDF membrane, and blocking was performed at room temperature for 1 hour using 5% skin milk. […]

[9] = tested on: elastin; assay: Elastin mRNA level after UVA irradiation, RT-PCR; type: cell-based, mouse; details: NIH3T3 cells, peptide 10, 50, 100 μM, 6 J/cm^2 UVA, FIG. 5
Procedure: as §1, with “First, NIH3T3 cells were” for “First, HaCaT cells were”, “density of 5×10^5 cell/well, and” for “density of 3×10^5 cell/well, and”, “treated with 50 μM of Quercetin” for “treated with 100 nM of EGF”, “μM of Quercetin instead of” for “nM of EGF instead of”, “C. for 6 hours.” for “C. for 24 hours.”
as §5

[10] = tested on: collagen; assay: Collagen protein secretion by ELISA in NIH3T3 fibroblasts; type: cell-based, mouse; details: peptide 10, 50, 100 μM, 72 hours, FIG. 2
Procedure: as §6, §7

[11] = tested on: Colla1; assay: Colla1 mRNA level after UVA irradiation, RT-PCR; type: cell-based, mouse; details: NIH3T3 cells, peptide 10, 50, 100 μM, 6 J/cm^2 UVA, FIG. 5
Procedure: as §1, with “First, NIH3T3 cells were” for “First, HaCaT cells were”, “density of 5×10^5 cell/well, and” for “density of 3×10^5 cell/well, and”, “treated with 50 μM of Quercetin” for “treated with 100 nM of EGF”, “μM of Quercetin instead of” for “nM of EGF instead of”, “C. for 6 hours.” for “C. for 24 hours.”
as §5

[12] = tested on: elastin gene; assay: Elastin gene expression by RT-PCR in fibroblasts; type: cell-based, mouse; details: NIH3T3 cells, peptide 10, 50, 100 μM, 24 hours, FIG. 1
Procedure: as §3, §4

[13] = tested on: MMP-1; assay: MMP-1 expression after UVA irradiation, western blot; type: cell-based, mouse; details: NIH3T3 cells, peptide 10, 50, 100 μM, 6 J/cm^2 UVA, FIG. 6
Procedure: as §8
The cells were cultured in a CO2 incubator at 37° C. for 1 hour. The medium of the cultured cells was transferred to a tube (e-tube), 1 ml of PBS was added, and irradiation was performed with 6 J/cm^2 of UVA using a UV irradiator (VILBER LOURMAT, Cat No.: 3102-BSU, France). After removing PBS, 900 μL of the medium transferred to the tube was added, and culture was performed in a CO2 incubator at 37° C. for 6 hours. The medium of the cultured cells was transferred to a tube, the cells were washed twice with PBS, and then a cell lysis buffer was added to lyse the cells. A sample was prepared by treating the cells with 5× sample buffer, and then SDS-PAGE was performed using 10% SDS-PAGE gel. The proteins isolated through SDS-PAGE were transferred to a PVDF membrane. Blocking was performed at room temperature for 1 hour using 5% skim milk. […]

Substance: KRRRKRK [SEQ ID NO: 1]
- mRNA level of AQP3 [1]: increased
- expression of fibronectin gene [2]: gradually increased as the concentration of the peptide increased
- activity of MMP-2 increased by UV irradiation [3]: inhibited
- intracellular reactive oxygen species level increased by UV irradiation [4]: decreased
- mRNA level of fibronectin decreased by UV irradiation [5]: increased again
- mRNA level of SIRT1 [6]: increased
- protein secretion of hyaluronic acid [7]: gradually increased as the concentration of the peptide increased
- amount of secretion of MMP-1 protein whose expression was increased by heat treatment [8]: decreased
- mRNA level of elastin decreased by UV irradiation [9]: increased again
- protein secretion of collagen [10]: gradually increased as the concentration of the peptide increased
- mRNA level of Colla1 decreased by UV irradiation [11]: increased again
- expression of elastin gene [12]: gradually increased as the concentration of the peptide increased
- expression of MMP-1 increased by UV irradiation [13]: inhibited
